According to PMC13195669, “GPR3 Ligands Discovered through Combined Virtual and Conformational Biosensor-Based Screening” (Journal of the American Chemical Society, 2026):

Columns and labels:
[1] = target: T1, GPR3 (Homo sapiens, UniProt P46089, INS231ASEIGTGFPFDPHYVEVLGERMHYVDVGPRDGTPVLFLHGNPTSSYVWRNIIPHVAPTHRCIAPDLIGMGKSDKPDLGYFFDDHVRFMDAFIEALGLEEVVLVIHDWGSALGFHWAKRNPERVKGIAFMEFIRPIPTWDEWPEFARETFQAFRTTDVGRKLIIDQNVFIEGTLPMGVVRPLTEVEMDHYREPFLNPVDREPLWRFPNELPIAGEPANIVALVEEYMDWLHQSPVPKLLFWGTPGVLIPPAEAARLAKSLPNCKAVDIGPGLNLLQEDNPDLIGSEIARWLSTLEISGGS); assay: BRET-based conformational GPR3 biosensor (GPR3-HaloTag/Nluc) in HEK293A cells; format: cell-based; details: for BRET response of GPR3 biosensor (direction, words): HEK293A
T1 construct: ligated to the full-length C-terminus; expressed in transfected cells; some experiments transient
Source text: To develop a conformational GPR3 biosensor that can be used in a microtiter well plate format, we employed the intramolecular BRET design previously validated for several GPCRs. − The BRET donor NanoLuc was fused to the receptor’s full-length C-terminus and the self-labeling protein tag, HaloTag, was inserted into GPR3′s third intracellular loop between amino acids Arg231 and His232 (Figure a; sequence in Figure S1). […]
Plasmids and molecular cloning […]
Plasmids encoding the conformational biosensors α2AAR- and β2AR-HaloTag/Nluc9 and the Gs heterotrimer dissociation sensor10 were previously described. The expression plasmid encoding N-terminally HA-tagged GPR3 (cat. no.
#GPR003TN00) on a pcDNA3.1+ vector was obtained from the cDNA resource center (cdna.org). The Nluc and HaloTag in-serts were amplified with overhanging restriction sites from β2AAR- HaloTag/Nluc and ligated to the full-length C-terminus or inserted into icl3 of GPR3, respectively, to obtain the conformational biosensor GPR3-HaloTag/Nluc. Point mutants of GPR3-HaloTag/Nluc were generated using the GeneArt Site-directed Mutagenesis System (Thermo Fisher Scientific). All con-structs were verified by sequencing (Eurofins genomics). […]
serum albumin (BSA) were obtained from Sigma Aldrich (Merck KGaA). Dulbecco's Modified Eagle's Medium (DMEM), Dul- […]
Diphenyleneiodonium chloride (DPI) and AF64394 were purchased from Tocris (Bio -Techne). The TMB (3, 3', 5, 5' tetramethyl benzidine) substrate reagent set was […]
were obtained in a single kit from Promega (cat. no. N1662). D-luciferin-sodium and the S1PR1 agonist III were from Med-ChemExpress. The Rluc substrate coelenterazine 400a was from NanoLight Technology (cat. no. 340 -10). White -wall, white - bottomed 96 -well, black -wall, black bottomed and transparent 96 -well microtiter plates were from Brand.
HEK293A cells were used for transient transfection and grown in Dulbecco’s modified Eagle’s medium (DMEM) supplemented with 2 mM glutamine, 10 % fetal calf serum, streptomycin (0.1 mg/mL), and penicillin (100 U/mL) at 37 °C with 5 % CO2. For the generation of stable GPR3 -HaloTag/Nluc cells, HEK293A cells grown in T75 flasks were transfected at a confluence of 40 – […]
Absence of mycoplasma contamination was routinely
(§1) Transient transfection and plating
Resuspended cells (300,000 cells/mL) were transfected in suspension with a total of 1 μg DNA/mL suspension using PEI (1 mg/ml stock solution; 3 μL PEI solution per μg DNA). […]
Cells mixed with the transfection reagents were seeded onto poly-D-lysine–precoated, 96-well plates and grown for 48 h at 37 °C with 5 % CO2. Stable α2AAR-, β2AR- or GPR3-HaloTag/Nluc expressing cells were seeded 24 h before the experi-ment at a density of 800,000 cells/mL into white 96-well plates. To monitor changes in BRET in with conformational GPCR […]
experiment. White plates were used for BRET and luminescence measurements, black plates for FRET experiments and trans-parent plates for absorbance-based quantification of receptor surface expression levels.

[2] = target: T2, GPR3 (Homo sapiens, UniProt P46089); assay: FRET/BRET cAMP biosensor in HEK293A cells cotransfected with GPR3; format: cell-based; details: cAMP biosensor; pcDNA vs GPR3 transfected HEK293A
T2 construct: host or cells: HEK293A, transient
Source text: With the first GPR3 ligands identified by using a conformational readout in our hands, we next wanted to understand whether these compounds could have been detected in a cAMP-based assay, which has been used extensively in the past to screen for GPR3 ligands. We therefore tested rac-VH1/52, VH2/93 and VH3/115 in cells expressing a cAMP biosensor.
3 Effect of rac-VH1/52, VH2/93 and VH3/115 on GPR3-dependent cAMP production. (a–c) Vehicle-corrected BRET changes induced by rac-VH1/52 (a), VH2/93 (b) or VH3/115 (c) in HEK293A cells transiently transfected with a cAMP BRET sensor along with pcDNA or GPR3. […] Statistical significance was tested using Two-Way ANOVA followed by Sidak multiple comparison (*: […]; **: p < 0.01). […]
Plasmids and molecular cloning
The H187-EPAC-FRET sensor7 was kindly provided by K. Jalink (The Netherlands Cancer Institute, Amsterdam, The Nether-lands). The BRET-based cAMP sensor CAMYEL8 was kindly provided by Laura Humphrys (University of Regensburg, Regens-burg, Germany). Plasmids encoding the conformational biosensors α2AAR- and β2AR-HaloTag/Nluc9 and the Gs heterotrimer dissociation sensor10 were previously described. The expression plasmid encoding N-terminally HA-tagged GPR3 (cat. no.
#GPR003TN00) on a pcDNA3.1+ vector was obtained from the cDNA resource center (cdna.org). The Nluc and HaloTag in-serts were amplified with overhanging restriction sites from β2AAR- HaloTag/Nluc and ligated to the full-length C-terminus or inserted into icl3 of GPR3, respectively, to obtain the conformational biosensor GPR3-HaloTag/Nluc. Point mutants of GPR3-HaloTag/Nluc were generated using the GeneArt Site-directed Mutagenesis System (Thermo Fisher Scientific). All con-structs were verified by sequencing (Eurofins genomics).
Poly-D-lysine, polyethylenimin hydrochloride (linear; average Mn 20 000; PEI) , […], LPA , forskolin, NECA and bovine serum albumin (BSA) were obtained from Sigma Aldrich (Merck KGaA). Dulbecco's Modified Eagle's Medium (DMEM), Dul-becco's Phosphate -Buffered Saline (DPBS) and G -418 (Geneticin) were from Gibco. Diphenyleneiodonium chloride (DPI) and AF64394 were purchased from Tocris (Bio -Techne). The TMB (3, 3', 5, 5' tetramethyl benzidine) substrate reagent set was from BioLegend. The Nluc substrate furimazine and the red fluorescen t HaloTag dye, HaloTag® NanoBRET® 618 Ligand, were obtained in a single kit from Promega (cat. no. N1662). D-luciferin-sodium and the S1PR1 agonist III were from Med-ChemExpress. The Rluc substrate coelenterazine 400a was from NanoLight Technology (cat. no. 340 -10). White -wall, white - bottomed 96 -well, black -wall, black bottomed and transparent 96 -well microtiter plates were from Brand.
HEK293A cells were used for transient transfection and grown in Dulbecco’s modified Eagle’s medium (DMEM) supplemented with 2 mM glutamine, 10 % fetal calf serum, streptomycin (0.1 mg/mL), and penicillin (100 U/mL) at 37 °C with 5 % CO2. […]
as §1
Resuspended cells (300,000 cells/mL) were transfected in suspension with a total of 1 μg DNA/mL suspension using PEI (1 mg/ml stock solution; 3 μL PEI solution per μg DNA). For cAMP experiments with FRET- or BRET-based sensors, resuspended cells were transfected with 500 ng pcDNA, wildtype GPR3 or GPR3-HaloTag/Nluc constructs along with 500 ng of the FRET-or BRET-based cAMP sensor per mL cell suspension. For cAMP experiments with GloSensor™ 22F, resuspended cells were transfected with 250 ng pcDNA or GPCR along with 500 ng of a 1:1 mix of pcDNA with the GloSensor™ 22F per mL cell sus-pension. Cells mixed with the transfection reagents were seeded onto poly-D-lysine–precoated, 96-well plates and grown for 48 h at 37 °C with 5 % CO2. Stable α2AAR-, β2AR- or GPR3-HaloTag/Nluc expressing cells were seeded 24 h before the experi-ment at a density of 800,000 cells/mL into white 96-well plates. To monitor changes in BRET in with conformational GPCR […]

[3] = system: β2AR; assay: β2AR-HaloTag/Nluc conformational biosensor (negative control) in HEK293A cells; format: cell-based, human; details: β2AR-HaloTag/Nluc as negative control; HEK293A stable
Method: Initially, all 93 molecules were tested for activity at the GPR3 biosensor at a concentration of 1 μM (Figure a). […] Of the five compounds that emerged from the virtual screen, three–hereafter referred to as virtual hit 1–3, VH1/2/3–were selected for in-house chemical synthesis (compounds 52, 93, and 115; cf. Scheme , Figure S6), providing compounds of ≥99% purity for hit validation (NMR spectra: Figures S7–S142; HPLC purity: Figures S143–S218). For VH1, the racemic mix, rac-VH1/52, was synthesized and used for testing. Compounds 52, VH2/93, and VH3/115 (Figure S6) were then validated with the GPR3 biosensor including β2AR-HaloTag/Nluc as a negative control.
BRET-based GPCR conformational sensor experiments
Cells expressing the conformational GPCR biosensors were grown for 24 h (stable cells) or 48 h (transiently transfected cells) in white 96-well plates and washed with 100 µl of HBSS. After washing, cells were incubated for 2 minutes with a 1/1000 solution of the furimazine stock solution (Promega; cat. no. N1662). Three baseline BRET reads were recorded and averaged prior to the addition of serial dilutions of ligands or veh icle control and subsequent BRET reads. All experiments were con-ducted at 37 °C. BRE T donor emission was quantified with a 470/80 nm monochromator. BRET acceptor emission was quan-tified using a 660/100 nm monochromator. Experiments were carried out using a CLARIOstar plate reader. […]
FRET and BRET ratios were defined as acceptor emission/donor emission. […] To quantify ligand-induced changes ΔFRET and ΔBRET were calculated for each well as a percent over basal ([(Ratiostim − Ratiobasal)/Ratiobasal] × 100). […]
Data from FRET/BRET experiments were fitted using a three-parameter fit. Z-factors expressing the high-throughput suita-bility were calculated with the following equation: […]
Commercially available chemicals and solvents were purchased from standard commercial suppliers (Merck (Darmstadt, Ger-many), Sigma-Aldrich (Munich, Germany), Acros Organics (Geel, Belgium), Alfa Aesar (Karlsruhe, Germany), abcr (Karlsruhe, Germany), BLD Pharmatech (Reinbek, Germany) or TCI Europe (Zwijndrecht, Belgium) and were used as received. Deuter-ated solvents for nuclear magnetic resonance (1H NMR and 13C NMR) spectra were purchased from Deutero GmbH (Kastel-laun, Germany). All reactions carried out with dry solvents were accomplished in dry flasks under nitrogen or argon atmos-phere. For the preparation of buffers, HPLC eluents, and stock solutions millipore water was used. […] The reactions were monitored by thin layer chromatography (TLC) on Merck silica gel 60 F254 aluminium sheets and spots were visualized under UV light at 254 nm, by potassium permanganate or ninhydrin staining. […]

T1 sequence (P46089 with tags, fused parts or gaps with the stated changes): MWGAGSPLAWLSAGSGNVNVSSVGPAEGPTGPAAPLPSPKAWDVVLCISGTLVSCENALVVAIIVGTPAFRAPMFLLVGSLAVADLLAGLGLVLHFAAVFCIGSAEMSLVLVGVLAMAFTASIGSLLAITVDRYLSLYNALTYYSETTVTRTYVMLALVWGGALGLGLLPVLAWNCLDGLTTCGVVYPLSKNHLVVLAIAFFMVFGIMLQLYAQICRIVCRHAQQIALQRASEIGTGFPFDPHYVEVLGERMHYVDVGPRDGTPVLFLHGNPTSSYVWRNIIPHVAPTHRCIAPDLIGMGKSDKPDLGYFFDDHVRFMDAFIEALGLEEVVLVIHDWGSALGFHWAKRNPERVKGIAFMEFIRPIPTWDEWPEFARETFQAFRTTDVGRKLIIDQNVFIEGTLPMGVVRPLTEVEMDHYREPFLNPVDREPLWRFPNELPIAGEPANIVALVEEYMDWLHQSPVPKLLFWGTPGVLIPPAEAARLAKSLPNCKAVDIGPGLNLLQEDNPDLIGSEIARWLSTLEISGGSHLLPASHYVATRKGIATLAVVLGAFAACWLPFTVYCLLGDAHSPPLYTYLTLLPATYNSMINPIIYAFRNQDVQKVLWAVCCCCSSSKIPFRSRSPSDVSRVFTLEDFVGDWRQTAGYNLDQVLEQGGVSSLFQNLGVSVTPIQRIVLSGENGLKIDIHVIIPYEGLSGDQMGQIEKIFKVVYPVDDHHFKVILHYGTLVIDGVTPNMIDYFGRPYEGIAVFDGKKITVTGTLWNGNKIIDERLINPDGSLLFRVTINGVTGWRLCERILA
T2 sequence (P46089 whole entry): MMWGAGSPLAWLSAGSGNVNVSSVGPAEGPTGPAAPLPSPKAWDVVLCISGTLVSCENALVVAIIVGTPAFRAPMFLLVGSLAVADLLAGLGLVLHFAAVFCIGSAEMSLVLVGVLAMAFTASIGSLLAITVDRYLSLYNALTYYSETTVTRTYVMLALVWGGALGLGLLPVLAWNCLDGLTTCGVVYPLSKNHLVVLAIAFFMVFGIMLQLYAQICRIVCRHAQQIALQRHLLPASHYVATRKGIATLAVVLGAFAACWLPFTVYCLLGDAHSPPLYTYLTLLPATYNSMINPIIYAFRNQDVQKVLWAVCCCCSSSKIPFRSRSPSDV

Row | EC50 ([1]; transiently expressing HEK293A cells, read-out: EC50 of BRET increase at conformational GPR3 biosensor) | Compound | BRET response of GPR3 biosensor (direction, words) [1] | GPR3-dependent change in cAMP [2] | specificity of conformational response for GPR3 vs β2AR-HaloTag/Nluc [3]
1 | 0.161 µM | CC(C)Oc1cc(Cl)ccc1CNc1cc(-c2ccccc2)nc2ncnn12 [AF64394, reference compound] | time- and ligand-concentration-dependent increase in BRET | concentration-dependent reduction of cAMP | –
2 | – | CCCCCCCC/C=C\CCCCCCCC(=O)NCCO [OEA, reference compound] | concentration-dependent decreases in BRET | – | –
3 | – | O=C(C1COc2ccccc2O1)N1CCC(Cn2cncn2)(C2CCCCC2)CC1 (stereo not shown) [compound 93] | – | to a much lesser extent | concentration-dependent and GPR3-specific conformational changes
4 | – | CCCCCCCC/C=C\CCCCCCCC(N)=O [oleamide, reference compound] | concentration-dependent decreases in BRET | – | –
